Species: Homo sapiens
Experiment: In vitro inhibition of platelet aggregation using Human platelet-Rich Plasma
Format: functional
In the case of `NCc1ccc(-c2nc3cc(C(=O)NCCC(=O)O)ccc3[nH]2)cc1`, the IC50 is reported as 100 µM. `CCCCOC(=O)N[C@@H](CNC(=O)c1ccc2nc(-c3ccc(C(=N)N)cc3)oc2c1)C(=O)O` was tested, and the IC50 was 0.02 µM. Compound `CCCCOC(=O)N[C@@H](CNC(=O)c1ccc2[nH]c(-c3ccc(C(=N)N)cc3)nc2c1)C(=O)O` has an IC50 of 0.05 µM. `NCc1ccc(-c2nc3cc(C(=O)N[C@@H](CC(=O)O)C(=O)NCCc4c[nH]c5ccccc45)ccc3[nH]2)cc1` was tested, and the IC50 was 61 µM. With `N=C(N)c1ccc(Cn2cnc3cc(C(=O)NCCC(=O)O)ccc32)cc1` the IC50 was 6.8 µM. `NCc1ccc(-c2nc3cc(C(=O)N[C@@H](CC(=O)O)C(=O)NCCc4ccccc4)ccc3[nH]2)cc1` gave an Inhibition of 16%. `Cc1nc2cc(C(=O)NCCC(=O)O)ccc2n1Cc1ccc(C(=N)N)cc1` showed an IC50 of 11 µM. `CCCCOC(=O)N[C@@H](CNC(=O)c1ccc2oc(-c3ccc(C(=N)N)cc3)nc2c1)C(=O)O` was tested, and the IC50 was 0.02 µM. `NCc1ccc(Cn2cnc3cc(C(=O)NCCC(=O)O)ccc32)cc1` showed an IC50 of 83 µM. For `O=C(O)CCNC(=O)c1ccc2c(c1)ncn2CCCC1CCNCC1`, the IC50 was 16 µM. Work on `Cc1ccc(S(=O)(=O)N[C@@H](CNC(=O)c2ccc3nc(-c4ccc(C(=N)N)cc4)oc3c2)C(=O)O)cc1` yielded an IC50 of 0.01 µM. In the case of `Cc1ccc(S(=O)(=O)N[C@@H](CNC(=O)c2ccc3oc(-c4ccc(C(=N)N)cc4)nc3c2)C(=O)O)cc1`, the IC50 is reported as 0.01 µM.

Source: ChEMBL document CHEMBL1128969, “Design, synthesis and in vitro activities of a series of benzimidazole/benzoxazole glycoprotein IIb/IIIa inhibitors” (Bioorg Med Chem Lett, 1996)
